Measured values published in US20130005573A1, “COMPOSITIONS AND METHODS OF USE FOR KETONES AND ALDEHYDES AS HERBICIDES” (North Carolina State University, priority 2010, published 2013).

Key:
[1] = tested on: bean plants; assay: Herbicidal spray treatment on bean plants; format: in vivo; details: 20% solution (wt/vol) in absolute ethanol, sprayed to run off
Description: Experiment 3 exemplifies the herbicidal activity of 2-undecanone on bean plants. The bean plant on the left in FIG. 3 was treated with a 20% solution (wt/vol) of 2-undecanone in a carrier comprising absolute ethanol. The bean plant on the right was treated with the absolute ethanol carrier only. Treatments were made by spraying each plant until “run off” levels were achieved. […] In contrast, the plant on the right (ethanol control) never differed in appearance from the no-spray controls (not shown). […] All treatments of the bean plants described above were performed in North Carolina during the summer months under a shelter; the bean plants were protected from the elements but were watered regularly. The plants also received direct sunlight for about 8 hours from approximately noon until sunset.

[2] = tested on: potato plants; assay: Greenhouse fine mist foliar spray on potato plants; format: in vivo; details: >2% in 95% ethanol
Description: (§1) This experiment was conducted in a greenhouse setting. Tomato seedlings in 4 to 6 true-leaf stage and 3-5 inch tall potato plants were treated with a fine mist spray comprising a solution of >2% 2-undecanone in 95% ethanol.

[3] = tested on: wild-type grass; assay: Spray treatment of test plots of wild-type grass; format: in vivo, grass (monocotyledon)
Description: Two experiments were initiated that tested the activity of an acyclic ketone on a common monocotyledon. The test plots comprised similar areas of wild-type grass. The area of each test plot of grass was defined to be the area within a square measuring approximately 15 inches on a side. The experiments were conducted using two different formulations of the same test material: the formulation tested in Experiment 6 comprised a 5% (wt/vol) mixture of undecanone in absolute ethanol; the formulation tested in Experiment 7 comprised a 5% (wt/vol) mixture of undecanone in water.
A measured amount of each formulation was sprayed onto its appropriate test area using a hand held spray bottle; the spray bottle produced a fine mist in each case. […] The details of each experiment are provided separately below.
In Experiment 6, 40 ml of a 5% formulation of the test material in ethanol (wt/vol) was evenly sprayed on one of two adjacent test plots of grass. This treated plot was located on the right side of the test plot pair. The adjacent test plot (left; control plot) was sprayed in an identical fashion with a spray bottle containing 40 mL of the ethanol carrier as a control; the time difference for completing the spraying of the two grassy test plots was less than 2 minutes. The effects of the spray formulations on the test plots were noted over time and images were captured at several time points for later comparisons (see FIGS. 5A, 5B and 5C for images). FIGS. 5A, 5B and 5C are images showing the effects of spraying a 5% formulation of the test material in ethanol and ethanol control on test plots of grass in accordance with embodiments of the present disclosure.
Visible differences were observed within a 30 minute period following the spray applications of control and test compound formulations comprising ethanol. […] The appearance of the plots at the one-hour time point are shown in the FIG. 5B image, and the appearance of the plots at the twenty four-hour time point are shown in the FIG. 5C image.
The conditions and amounts of materials used in Experiment 7 were similar to those employed in Experiment 6, with the exception that both the formulation comprising the active ingredient and the solution of carrier comprised water in the place of ethanol. In Experiment 7, the early toxicity effects were delayed compared to the early toxicity effects noted in Experiment 6. […] The appearance of the areas treated with the formulation comprising water were photographed at the 24 hour time point and can be seen in the image of FIG. 6B.

[4] = tested on: Tomato seedlings; assay: Greenhouse fine mist foliar spray on tomato seedlings; format: in vivo
Description: as §1

[5] = tested on: wild henbit; assay: Herbicidal spray treatment on henbit under winter field conditions; format: in vivo, henbit (Lamium amplexicaule)
Description: FIG. 1 is an image showing results of tests used to determine the herbicidal activity of a spray treatment comprising the use of a 5% solution of 2-undecanone in ethanol. The image was captured approximately 2 hours after the spray-applications of materials to henbit under winter field conditions. Both of the weed groups shown in FIG. 1 are groups of wild henbit. Treatment of the group of henbit plants on the left side of FIG. 1 (control group) consisted of spraying the group with 100 ml of the carrier as a fine mist; the carrier comprised absolute ethanol (without the herbicide). Treatment of the group of henbit plants on the right side of FIG. 1 (treatment group) consisted of spraying the group with 100 ml of the herbicide/carrier mixture (5 wt % of 2-undecanone/100 mL solution) as a fine mist. The image was captured 2 hours after treatment.
Because the sprayer produced a very fine mist in each case, and there may have been spray drift (from the wind) during these treatments, evaporation and dissipation of these misty sprays occurred to some degree before and while each spray hit its targeted group of plant material.
Experiment 2 is similar to Experiment 1, in that it tests the herbicidal activity of an experimental spray treatment on henbit. The herbicidal spray treatments of Experiment 2 comprised the use of a 20% solution of 2-undecanone in ethanol (20 wt % of 2-undecanone/100 mL solution). The experimental results are featured in FIGS. 2A, 2B and 2C, the henbit treatment group receiving the 2-undecanone spray treatment is located on the right side of the image shown in FIG. 2A. The control group was treated with a spray comprising just the carrier (absolute ethanol); the henbit treatment group receiving this carrier-only spray treatment (control group) is located on the left side of the image shown in FIG. 2A. The image was captured 4 days after the spray-applications of these materials to the groups of henbit under winter field conditions. […]

## CCCCCCCCCC(C)=O [2-undecanone]
[1]; 2 weeks after treatment
  leaf color of treated bean plant: yellow
[1]; day of treatment
  onset of change in appearance of treated bean plant: started to change its appearance and character shortly after the spray treatment was complete
[2]; 3-5 inch tall plants
  time to death of the plants' foliage: ≤ 24 h
[2]; fine mist to foliage
  subsequent outcome after foliage death: plant death
[3]; Experiment 6: 5% (wt/vol) in ethanol, up to 24 hours
  course of herbicidal toxicity over time: increase with time
[3]; Experiment 6: 40 ml of 5% (wt/vol) in ethanol
  time to visible differences versus control plot: ≤ 30 min
[3]; Experiment 6: 40 ml of 5% (wt/vol) in ethanol, after 30 minutes
  appearance of treated grass: appeared brown
[3]; Experiment 7: 5% (wt/vol) in water
  time to first toxicity effects after spraying: 2 to 3 h
[3]; Experiment 7: 5% (wt/vol) in water, at 24 hours
  visual appearance of water-carrier plots compared with ethanol-carrier plots: similar
[4]; >2% in 95% ethanol, fine mist to foliage
  subsequent outcome after foliage death: plant death
[4]; >2% in 95% ethanol, fine mist to foliage, seedlings in 4 to 6 true-leaf stage
  time to death of the plants' foliage: ≤ 24 h
[4]; less than 1% in 95% ethanol, similar application
  effect on tomato plants at low concentration: death of foliage followed by re-foliation some days later
[5]; 5% solution in ethanol, 100 ml fine mist, below run-off, approximately 2 hours after treatment
  changes in color and vitality of treated henbit plants: had lost much of their green color and vitality, and had turned yellow
[5]; 20% (wt/vol) in absolute ethanol, 100 ml spray, 4 days after treatment
  overall state of treated henbit group versus control: appeared to be dead or dying
[5]; 20% (wt/vol) in absolute ethanol, 100 ml spray, below run-off, 4 days after treatment
  effect on stems of treated henbit plants: had become significantly weakened and had become flaccid
